From patent publication US20180201647A1, “Peptoid” (The University of Durham, priority 2015, published 2018)
Where a SMILES comes first, the peptide text is derived from it. [ ]: non-standard residue; d: D form. Nspe = C[C@H](NCC(=O)O)c1ccccc1; NhArg = N=C(N)NCCCCNCC(=O)O; Nlys = NCCCCNCC(=O)O

Assays:
Format in all cases: cell-based
[1] = tested on: S. aureus (NCTC 6571) biofilm; assay: Single species biofilm treatment, crystal violet assay; conditions: 100 μM peptoid, 24 hours, FIG. 17B
Protocol: (§1) C. albicans (NCTC 3179) was subcultured aerobically on Sabouraud agar plates and propagated in yeast peptone dextrose broth. E. coli (ATCC 29522) and S. aureus (NCTC 6571) were grown on blood agar plates and propagated in brain heart infusion (BHI) broth.
(§2) Overnight cultures of C. albicans were washed and resuspended in a modified RPMI-1640 (Sigma-Aldrich, St Louis, USA) medium to yield an inoculum of 1.0×10^6 cells/ml. Overnight cultures of S. aureus or E. coli were washed and resuspended in brain heart infusion broth (Oxoid, Basingstoke, UK) to yield an inoculum of 5.0×10^6 cells/ml. A total volume of 100 μl of each inoculum was added to microtitre plate wells (Thermo Fisher Scientific, Roskilde, Denmark). An initial biofilm was allowed to form for 4 hours. Wells were washed three times with 200 μl PBS to facilitate removal of planktonic cells and the biofilms were then treated with 100 μM of peptoids 1-4 in the appropriate broth. Plates were incubated for a further 24 hours to allow biofilm maturation. After removal of planktonic cells by washing, biofilms were quantified by the crystal violet assay or by PMA-qPCR.
(§3) Biofilm quantification by crystal violet assay Washed biofilms were fixed with 100 μl methanol for 10 minutes. Following removal of methanol, the wells were air dried and stained with crystal violet solution (Clin-Tech Ltd, Guildford, UK) for 20 minutes at room temperature. Excess stain was removed by washing, the plate was then air dried and bound crystal violet was re-solubilised in 16 μl 33% acetic acid prior to reading at 570 nm in a microtitre plate reader (Tecan GENios, Ziirich, Switzerland).

[2] = tested on: Trypanosoma brucei rhodesiense STIB900; conditions: for IC50: 70 h; for active against T. brucei rhodesiense: statement in words
Protocol: This stock was isolated in 1982 from a human patient in Tanzania and after several mouse passages cloned and adapted to axenic culture conditions. Minimum Essential Medium (50 μl) supplemented with 25 mM HEPES, 1 g/l additional glucose, 1% MEM non-essential amino acids (100×), 0.2 mM 2-mercaptoethanol, 1 mM Na-pyruvate and 15% heat inactivated horse serum was added to each well of a 96-well microtiter plate. Serial drug dilutions of eleven 3-fold dilution steps covering a range from 100 to 0.002 μg/ml were prepared. Then 4×10^3 bloodstream forms of T. b. rhodesiense STIB 900 in 50 μl was added to each well and the plate incubated at 37° C. under a 5% CO2 atmosphere for 70 h. 10 μl Alamar Blue (resazurin, 12.5 mg in 100 ml double-distilled water) was then added to each well and incubation continued for a further 2-4 h. Then the plates were read with a Spectramax Gemini XS microplate fluorometer (Molecular Devices Cooperation, Sunnyvale, Calif., USA) using an excitation wave length of 536 nm and an emission wave length of 588 nm. The IC50 values were calculated by linear regression from the sigmoidal dose inhibition curves using SoftmaxPro software (Molecular Devices Cooperation, Sunnyvale, Calif., USA). Melarsoprol (Arsobal Sanofi-Aventis, received from WHO) is used as control.

[3] = tested on: erythrocytic stages of P. falciparum; conditions: for active against P. falciparum: statement in words; for IC50: strain (NF54 or K1) not given
Protocol: In vitro activity against erythrocytic stages of P. falciparum was determined using a 3H-hypoxanthine incorporation assay using the drug sensitive NF54 strain (Schipol airport) or the chloroquine and pyrimethamine resistant K1 strain that originate from Thailand and the standard drug chloroquine (Sigma C6628). Compounds were dissolved in DMSO at 10 mg/ml and added to parasite cultures incubated in RPMI 1640 medium without hypoxanthine, supplemented with HEPES (5.94 g/l), NaHCO3 (2.1 g/1), neomycin (100 U/ml), Albumax® (5 g/l) and washed human red cells A^+ at 2.5% haematocrit (0.3% parasitaemia). Serial drug dilutions of eleven 3-fold dilution steps covering a range from 100 to 0.002 μg/ml were prepared. The 96-well plates were incubated in a humidified atmosphere at 37° C.; 4% CO2, 3% O2, 93% N2. After 48 h 50 μl of 3H-hypoxanthine (=0.5 μCi) was added to each well of the plate. The plates were incubated for a further 24 h under the same conditions. The plates were then harvested with a Betaplate™ cell harvester (Wallac, Zurich, Switzerland), and the red blood cells transferred onto a glass fibre filter then washed with distilled water. The dried filters were inserted into a plastic foil with 10 ml of scintillation fluid, and counted in a Betaplate™ liquid scintillation counter (Wallac, Zurich, Switzerland). IC50 values were calculated from sigmoidal inhibition curves by linear regression using Microsoft Excel. Chloroquine and artemisinin are used as control.

[4] = tested on: E. coli (ATCC 29522) biofilm; assay: Single species biofilm treatment, crystal violet assay; conditions: 100 μM peptoid, 24 hours, FIG. 17C
Protocol: as §1, §2, §3

Compound | activity against the S. aureus biofilm [1] | IC50 [2] | active against T. brucei rhodesiense [2] | active against P. falciparum [3] | IC50 [3] | activity against the E. coli biofilm [4]
C[C@@H](c1ccccc1)N(CC(N)=O)C(=O)CN(C(=O)CN(CCCCNC(=N)N)C(=O)CN(C(=O)CN(C(=O)CN(CCCCNC(=N)N)C(=O)CN(C(=O)CN(C(=O)CN(CCCCN)C(=O)CN(C(=O)CN(C(=O)CNCCCCN)[C@@H](C)c1ccccc1)[C@@H](C)c1ccccc1)[C@@H](C)c1ccccc1)[C@@H](C)c1ccccc1)[C@@H](C)c1ccccc1)[C@@H](C)c1ccccc1)[C@@H](C)c1ccccc1 [Peptoid 1, (NLys-Nspe-Nspe)2(NhArg-Nspe-Nspe)2] (H-[Nlys][Nspe][Nspe][Nlys][Nspe][Nspe][NhArg][Nspe][Nspe][NhArg][Nspe][Nspe]-NH2; N-terminus assumed) | strongest anti-bacterial activity | 6.73 µM | active | active | 1.5 µM | –
C[C@@H](c1ccccc1)N(CC(N)=O)C(=O)CN(C(=O)CN(CCCCN)C(=O)CN(C(=O)CN(C(=O)CN(CCCCNC(=N)N)C(=O)CN(C(=O)CN(C(=O)CN(CCCCN)C(=O)CN(C(=O)CN(C(=O)CNCCCCNC(=N)N)[C@@H](C)c1ccccc1)[C@@H](C)c1ccccc1)[C@@H](C)c1ccccc1)[C@@H](C)c1ccccc1)[C@@H](C)c1ccccc1)[C@@H](C)c1ccccc1)[C@@H](C)c1ccccc1 [Peptoid 4, [(NhArg-Nspe-Nspe)(NLys-Nspe-Nspe)]2] (H-[NhArg][Nspe][Nspe][Nlys][Nspe][Nspe][NhArg][Nspe][Nspe][Nlys][Nspe][Nspe]-NH2; N-terminus assumed) | – | 16.7 µM | active | active | 2.72 µM | strongest anti-bacterial activity
